Data reported in the NIST ThermoML archive (doi:10.1016/j.jct.2018.03.016).

Settings: Liquid; for speed of sound: Frequency=5 MHz, Single path-length method; for mass density: Vibrating tube method

CCC(=O)[O-].[NH3+]CCO [2-hydroxyethan-1-aminium propionate]
Settings | mass density [kg/m3] | speed of sound [m/s]
323.15 K, 14000 kPa | – | 1562.3
323.15 K, 15000 kPa | – | 1566.3
323.15 K, 16000 kPa | – | 1568.9
323.15 K, 17000 kPa | – | 1572.9
323.15 K, 18000 kPa | – | 1576.9
323.15 K, 19000 kPa | – | 1581
323.15 K, 20000 kPa | – | 1585
333.08 K, 35000 kPa | 1096.1 | –
333.09 K, 10000 kPa | 1084.9 | –
333.09 K, 15000 kPa | 1087.4 | –
333.09 K, 25000 kPa | 1091.8 | –
333.09 K, 30000 kPa | 1093.9 | –
333.1 K, 20000 kPa | 1089.7 | –
333.12 K, 100 kPa | 1079.6 | –
333.15 K, 100 kPa | – | 1474.9
333.15 K, 1000 kPa | – | 1479.7
333.15 K, 2000 kPa | – | 1484.6
333.15 K, 3000 kPa | – | 1488.3
333.15 K, 4000 kPa | – | 1493.2
333.15 K, 5000 kPa | – | 1497
333.15 K, 6000 kPa | – | 1501.9
333.15 K, 7000 kPa | – | 1505.7
333.15 K, 8000 kPa | – | 1509.5
333.15 K, 9000 kPa | – | 1514.5
333.15 K, 10000 kPa | – | 1518.3
333.15 K, 11000 kPa | – | 1523.3
333.15 K, 12000 kPa | – | 1527.2
333.15 K, 13000 kPa | – | 1531
333.15 K, 14000 kPa | – | 1534.9
333.15 K, 15000 kPa | – | 1540
333.15 K, 16000 kPa | – | 1543.8
333.15 K, 17000 kPa | – | 1547.7
333.15 K, 18000 kPa | – | 1551.6
333.15 K, 19000 kPa | – | 1555.5
333.15 K, 20000 kPa | – | 1559.5
343.15 K, 100 kPa | – | 1449.3
343.15 K, 1000 kPa | – | 1453
343.15 K, 2000 kPa | – | 1456.8
343.15 K, 3000 kPa | – | 1461.8
343.15 K, 4000 kPa | – | 1466.7
343.15 K, 5000 kPa | – | 1471.7
343.15 K, 6000 kPa | – | 1475.5
343.15 K, 7000 kPa | – | 1480.5
343.15 K, 8000 kPa | – | 1485.5
343.15 K, 9000 kPa | – | 1489.3
343.15 K, 10000 kPa | – | 1494.3
343.15 K, 11000 kPa | – | 1499.4
343.15 K, 12000 kPa | – | 1503.2
343.15 K, 13000 kPa | – | 1508.2
343.15 K, 14000 kPa | – | 1513.3
343.15 K, 15000 kPa | – | 1517.2
343.15 K, 16000 kPa | – | 1522.2
343.15 K, 17000 kPa | – | 1526.1
343.15 K, 18000 kPa | – | 1530
343.15 K, 19000 kPa | – | 1533.8
343.15 K, 20000 kPa | – | 1537.7
343.17 K, 100 kPa | 1066 | –
343.17 K, 20000 kPa | 1076.6 | –
343.17 K, 25000 kPa | 1079 | –
343.17 K, 30000 kPa | 1081.8 | –
343.18 K, 15000 kPa | 1074.3 | –
343.18 K, 35000 kPa | 1084.1 | –
343.19 K, 10000 kPa | 1070.6 | –
353.15 K, 100 kPa | – | 1416
353.15 K, 1000 kPa | – | 1421
353.15 K, 2000 kPa | – | 1426.1
353.15 K, 3000 kPa | – | 1431.2
353.15 K, 4000 kPa | – | 1436.3
353.15 K, 5000 kPa | – | 1441.4
353.15 K, 6000 kPa | – | 1446.5
353.15 K, 7000 kPa | – | 1451.7
353.15 K, 8000 kPa | – | 1456.8
353.15 K, 9000 kPa | – | 1463.1
353.15 K, 10000 kPa | – | 1467
353.15 K, 11000 kPa | – | 1473.3
353.15 K, 12000 kPa | – | 1478.4
353.15 K, 13000 kPa | – | 1482.4
353.15 K, 14000 kPa | – | 1487.5
353.15 K, 15000 kPa | – | 1492.6
353.15 K, 16000 kPa | – | 1496.5
353.15 K, 17000 kPa | – | 1500.4
353.15 K, 18000 kPa | – | 1504.4
353.15 K, 19000 kPa | – | 1509.5
353.15 K, 20000 kPa | – | 1513.3
